# Data from publication PMC6004018, “Dual-functional peptide with defective interfering genes effectively protects mice against avian and seasonal influenza” (Nature Communications, 2018).
# Read-outs that look alike come from different tables or passages of the source. Residues, ends and D or L forms follow the SMILES beside them.
# How the values were obtained:
# A(H1N1)pdm09 virus [1] = format: cell-based
# [2] = tested on: endosomal acidification in MDCK cells; experiment: Endosomal acidification analysis in live cells; format: cell-based, canine; details: pHrodo Red dextran, P1 25.0 μg ml-1, TAT-P1 3.1 μg ml-1, bafilomycin A1 100.0 nM, PA1 25.0 μg ml-1
# [3] = molecular target: viral HA protein (H1N1 glycoprotein HA1) (Influenza A virus, UniProt C3W5S1); details: ELISA (peptide 0.1 μg per well, HA1 2 μg ml-1) and western blot (peptide 1 μg)
# MDCK cells = experiment: MTT cytotoxicity assay in MDCK cells; details: 24 h incubation at 37 °C, DMEM with 1% FBS, three independent experiments
# 293T cells [4] = experiment: MTT cytotoxicity assay in 293T cells; details: 24 h incubation at 37 °C, DMEM with 1% FBS, three independent experiments
# [5] = tested on: HA-mediated membrane fusion (H7N7 HA in 293T cells); details: pH 5
# A(H7N7) virus [6] = details: 1 h, pH 7.4
# 293T cells [7] = tested on: 293T cells
# A(H7N7) virus [8] = tested on: A(H7N7) virus; set-up: species or system BALB/c female mice; details: mouse, in vivo
# A(H1N1)pdm09 virus [9] = details: 1 h, pH 7.4
# endosomal acidification = details: cited from earlier work
# A(H1N1)pdm09 virus [10] = tested on: A(H1N1)pdm09 virus; set-up: species or system BALB/c female mice; details: mouse, in vivo
# A(H7N7) virus [11] = format: cell-based
# A(H1N1)pdm09 virus [12] = tested on: A(H1N1)pdm09 virus; set-up: species or system BALB/c female mice; details: in vivo
# Chain of viral HA protein (H1N1 glycoprotein HA1) (C3W5S1 18-344 limits assumed): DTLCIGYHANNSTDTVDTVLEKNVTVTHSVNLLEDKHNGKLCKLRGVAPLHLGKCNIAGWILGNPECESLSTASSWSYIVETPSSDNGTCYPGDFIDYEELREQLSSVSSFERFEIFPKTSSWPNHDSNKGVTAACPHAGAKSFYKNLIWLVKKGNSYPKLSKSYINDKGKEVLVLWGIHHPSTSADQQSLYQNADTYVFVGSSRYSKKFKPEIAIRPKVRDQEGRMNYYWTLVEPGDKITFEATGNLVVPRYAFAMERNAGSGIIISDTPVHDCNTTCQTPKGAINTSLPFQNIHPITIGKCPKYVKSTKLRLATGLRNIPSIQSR
compound,measurement,setting,value
"CO/C1=C\C(C)=C\[C@@H](C)[C@@H](O)[C@@H](C)C/C(C)=C/C=C/[C@H](OC)[C@@H]([C@@H](C)[C@@H](O)[C@H](C)[C@@]2(O)C[C@@H](O)[C@H](C)[C@@H](C(C)C)O2)OC1=O [Bafilomycin A1, reference compound]",block of viral RNP release into the nuclei,A(H1N1)pdm09 virus [1],blocked viral RNP release into the nuclei
same,prevention of endosomal acidification,[2],prevented endosomal acidification
CC[C@H](C)[C@H](NC(=O)[C@H](CCC(N)=O)NC(=O)[C@H](CCCNC(=N)N)NC(=O)[C@H](Cc1ccccc1)NC(=O)[C@H](C)NC(=O)[C@@H](NC(=O)[C@@H]1CCCN1C(=O)[C@H](CS)NC(=O)[C@@H]1CCCN1C(=O)CNC(=O)[C@H](Cc1c[nH]c2ccccc12)NC(=O)[C@@H](N)CS)[C@@H](C)O)C(=O)NCC(=O)N[C@@H](CC(N)=O)C(=O)N[C@@H](CS)C(=O)NCC(=O)N[C@@H](CCCNC(=N)N)C(=O)N[C@@H](Cc1ccccc1)C(=O)N[C@@H](CCCNC(=N)N)C(=O)N[C@H](C(=O)N[C@@H](CCCNC(=N)N)C(=O)N[C@@H](CS)C(=O)N[C@@H](CS)C(=O)N[C@@H](CCCNC(=N)N)C(=O)N[C@H](C(=O)N[C@@H](CCCNC(=N)N)C(=O)O)[C@@H](C)CC)C(C)C [P1] (H-CWGPCPTAFRQIGNCGRFRVRCCRIR-OH),binding to viral HA protein,[3],bind to viral HA protein
same,block of viral RNP release into the nuclei,A(H1N1)pdm09 virus [1],blocked viral RNP release into the nuclei
same,CC50 (MDCK),MDCK cells,> 400 µg/mL
same,CC50 (293T),293T cells [4],> 400 µg/mL
same,inhibition of viral replication in 293T cells,H7N7 virus,significantly inhibit viral replication
same,inhibition of HA-mediated membrane fusion,[5],did not inhibit HA-mediated membrane fusion
same,IC50 (H7N7),A(H7N7) virus [6],1.56 µg/mL
same,prevention of endosomal acidification,[2],prevented endosomal acidification
same,concentration that significantly enhances the transfection efficiency of plasmid DNA,293T cells [7],12.5
"N=C(N)NCCC[C@H](NC(=O)[C@H](CCCNC(=N)N)NC(=O)[C@H](CCCNC(=N)N)NC(=O)[C@H](CCC(N)=O)NC(=O)[C@H](CCCNC(=N)N)NC(=O)[C@H](CCCNC(=N)N)NC(=O)[C@H](CCCCN)NC(=O)[C@H](CCCCN)NC(=O)[C@H](CCCNC(=N)N)NC(=O)CNC(=O)[C@@H](N)Cc1ccc(O)cc1)C(=O)O [TAT, reference compound]",CC50 (MDCK),MDCK cells,> 400 µg/mL
same,CC50 (293T),293T cells [4],> 400 µg/mL
CC[C@H](C)[C@H](NC(=O)[C@H](CCC(N)=O)NC(=O)[C@H](CCCNC(=N)N)NC(=O)[C@H](Cc1ccccc1)NC(=O)[C@H](C)NC(=O)[C@@H](NC(=O)[C@@H]1CCCN1C(=O)[C@H](CS)NC(=O)[C@@H]1CCCN1C(=O)CNC(=O)[C@H](Cc1c[nH]c2ccccc12)NC(=O)[C@H](CS)NC(=O)[C@H](CCCNC(=N)N)NC(=O)[C@H](CCCNC(=N)N)NC(=O)[C@H](CCCNC(=N)N)NC(=O)[C@H](CCC(N)=O)NC(=O)[C@H](CCCNC(=N)N)NC(=O)[C@H](CCCNC(=N)N)NC(=O)[C@H](CCCCN)NC(=O)[C@H](CCCCN)NC(=O)[C@H](CCCNC(=N)N)NC(=O)CNC(=O)[C@@H](N)Cc1ccc(O)cc1)[C@@H](C)O)C(=O)NCC(=O)N[C@@H](CC(N)=O)C(=O)N[C@@H](CS)C(=O)NCC(=O)N[C@@H](CCCNC(=N)N)C(=O)N[C@@H](Cc1ccccc1)C(=O)N[C@@H](CCCNC(=N)N)C(=O)N[C@H](C(=O)N[C@@H](CCCNC(=N)N)C(=O)N[C@@H](CS)C(=O)N[C@@H](CS)C(=O)N[C@@H](CCCNC(=N)N)C(=O)N[C@H](C(=O)N[C@@H](CCCNC(=N)N)C(=O)O)[C@@H](C)CC)C(C)C [TAT-P1] (H-YGRKKRRQRRRCWGPCPTAFRQIGNCGRFRVRCCRIR-OH),binding to viral HA protein,[3],bind to viral HA protein
same,weight ratio (peptide:DNA) at which complexes with DNA form,plasmid DNA,> 2
same,block of viral RNP release into the nuclei,A(H1N1)pdm09 virus [1],blocked viral RNP release into the nuclei
same,inhibition of viral replication in 293T cells,H7N7 virus,significantly inhibit viral replication
same,inhibition of HA-mediated membrane fusion,[5],did not inhibit HA-mediated membrane fusion
same,survival,A(H7N7) virus [8],30%
same,IC50 (H7N7),A(H7N7) virus [6],0.56 µg/mL
same,prevention of endosomal acidification,[2],prevented endosomal acidification
same,IC50 (H1N1),A(H1N1)pdm09 virus [9],0.67 µg/mL
CC[C@H](C)[C@H](NC(=O)[C@H](CCCNC(=N)N)NC(=O)[C@H](CS)NC(=O)[C@H](CS)NC(=O)[C@H](CCCNC(=N)N)NC(=O)[C@@H](NC(=O)[C@H](CCCNC(=N)N)NC(=O)[C@H](Cc1ccccc1)NC(=O)[C@H](CCCNC(=N)N)NC(=O)CNC(=O)[C@H](CS)NC(=O)[C@H](CC(N)=O)NC(=O)[C@H](CCCNC(=N)N)NC(=O)[C@H](CCCCN)NC(=O)[C@H](CCCNC(=N)N)NC(=O)[C@H](Cc1ccccc1)NC(=O)[C@H](C)NC(=O)[C@H](CCCNC(=N)N)NC(=O)[C@@H]1CCCN1C(=O)[C@H](CS)NC(=O)[C@@H]1CCCN1C(=O)[C@H](CCCNC(=N)N)NC(=O)[C@H](Cc1c[nH]c2ccccc12)NC(=O)[C@H](CS)NC(=O)[C@H](CCCNC(=N)N)NC(=O)[C@H](CCCNC(=N)N)NC(=O)[C@H](CCCNC(=N)N)NC(=O)[C@H](CCC(N)=O)NC(=O)[C@H](CCCNC(=N)N)NC(=O)[C@H](CCCNC(=N)N)NC(=O)[C@H](CCCCN)NC(=O)[C@H](CCCCN)NC(=O)[C@H](CCCNC(=N)N)NC(=O)CNC(=O)[C@@H](N)Cc1ccc(O)cc1)[C@@H](C)CC)C(=O)N[C@@H](CCCNC(=N)N)C(=O)O [TAT-P2] (H-YGRKKRRQRRRCWRPCPRAFRKRNCGRFRIRCCRIR-OH; N-terminus and C-terminus assumed),IC50 (H7N7),A(H7N7) virus [6],0.97 µg/mL
same,IC50 (H1N1),A(H1N1)pdm09 virus [9],0.76 µg/mL
CC[C@H](C)[C@H](NC(=O)[C@H](CCCNC(=N)N)NC(=O)[C@H](CS)NC(=O)[C@H](CCCNC(=N)N)NC(=O)[C@@H](NC(=O)[C@H](CCCNC(=N)N)NC(=O)[C@H](Cc1ccccc1)NC(=O)[C@H](CCCNC(=N)N)NC(=O)CNC(=O)[C@H](CS)NC(=O)[C@H](CC(C)C)NC(=O)[C@H](CCC(N)=O)NC(=O)[C@H](CCCNC(=N)N)NC(=O)[C@H](Cc1ccccc1)NC(=O)[C@H](CO)NC(=O)[C@@H]1CCCN1C(=O)[C@H](CS)NC(=O)[C@@H]1CCCN1C(=O)[C@H](CCCNC(=N)N)NC(=O)[C@H](Cc1c[nH]c2ccccc12)NC(=O)[C@H](CS)NC(=O)[C@H](CCCNC(=N)N)NC(=O)[C@H](CCCNC(=N)N)NC(=O)[C@H](CCCNC(=N)N)NC(=O)[C@H](CCC(N)=O)NC(=O)[C@H](CCCNC(=N)N)NC(=O)[C@H](CCCNC(=N)N)NC(=O)[C@H](CCCCN)NC(=O)[C@H](CCCCN)NC(=O)[C@H](CCCNC(=N)N)NC(=O)CNC(=O)[C@@H](N)Cc1ccc(O)cc1)[C@@H](C)CC)C(=O)N[C@@H](CCCNC(=N)N)C(=O)O [TAT-P3] (H-YGRKKRRQRRRCWRPCPSFRQLCGRFRIRCRIR-OH; N-terminus and C-terminus assumed),IC50 (H7N7),A(H7N7) virus [6],0.78 µg/mL
same,IC50 (H1N1),A(H1N1)pdm09 virus [9],0.68 µg/mL
CCN(CC)CCCC(C)Nc1ccnc2cc(Cl)ccc12 (centres unmarked) [chloroquine],effective concentrations for inhibiting endosomal acidification,endosomal acidification,~ 100 μM
CC(=O)N[C@H]1[C@H]([C@H](O)[C@H](O)CO)OC(C(=O)O)=C[C@@H]1N=C(N)N [zanamivir],body weight loss,A(H7N7) virus [8],significantly less body weight loss
same,survival,A(H7N7) virus [8],40%
same,survival,A(H1N1)pdm09 virus [10],90%
same,susceptibility of virus to zanamivir,A(H7N7) virus [11],reduced susceptibility
same,viral titers / viral replication in mouse lungs,A(H1N1)pdm09 virus [12],significantly reduced
same,IL-6 expression in mice,A(H1N1)pdm09 virus [12]; mouse,significantly reduced
same,body weight loss,A(H1N1)pdm09 virus [12]; mouse,significantly reduced
same,survival,A(H1N1)pdm09 virus [12]; mouse,90%
